39 compounds from BindingDB's records for doi:10.1021/jm034206x (Boehringer Ingelheim (Canada), 2003) can be followed below.

pIC50: −log10 of the molar value.

For one test, the target named is T1, Replication protein E1 (Human papillomavirus 11, UniProt P04014).
T1 sequence (P04014 whole entry): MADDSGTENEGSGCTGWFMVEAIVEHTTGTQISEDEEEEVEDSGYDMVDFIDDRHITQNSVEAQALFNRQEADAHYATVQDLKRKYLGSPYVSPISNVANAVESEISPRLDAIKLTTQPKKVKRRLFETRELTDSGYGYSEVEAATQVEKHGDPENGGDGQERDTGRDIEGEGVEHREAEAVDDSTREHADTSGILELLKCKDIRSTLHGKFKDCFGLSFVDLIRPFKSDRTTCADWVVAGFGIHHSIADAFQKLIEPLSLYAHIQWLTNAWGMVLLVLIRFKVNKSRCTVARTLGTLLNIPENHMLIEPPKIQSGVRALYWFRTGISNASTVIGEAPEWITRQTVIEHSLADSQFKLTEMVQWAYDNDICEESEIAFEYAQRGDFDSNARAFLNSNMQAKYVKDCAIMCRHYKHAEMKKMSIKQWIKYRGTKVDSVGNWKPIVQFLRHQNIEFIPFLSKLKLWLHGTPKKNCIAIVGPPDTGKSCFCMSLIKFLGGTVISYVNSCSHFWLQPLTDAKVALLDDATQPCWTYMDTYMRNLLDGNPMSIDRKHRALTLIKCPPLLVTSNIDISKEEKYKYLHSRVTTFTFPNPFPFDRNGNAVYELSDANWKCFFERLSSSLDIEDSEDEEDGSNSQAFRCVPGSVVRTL
Put plainly: ChEBML_84985. The source says:
Ability to inhibit in vitro ATPase activity of human papillomavirus (HPV6) E1 helicase
Broadly, the pIC50 is the negative decadic logarithm of the IC50, by convention in mol/L. Compound `O=C(O)CS(=O)(=O)c1ccc(-c2cccc(C(=O)NCc3cccc4ccccc34)c2)cc1` [{3'-[(Naphthalen-1-ylmethyl)-carbamoyl]-biphenyl-4-sulfonyl}-acetic acid] showed a pIC50 of 8.37.

A further test deals with Replication protein E1 (Human papillomavirus type 6). Put plainly: Ability to inhibit in vitro ATPase activity of human papillomavirus (HPV6) E1 helicase.
Take `CC(C)(C(=O)O)S(=O)(=O)c1ccc(-c2ccccc2)cc1` [2-(Biphenyl-4-sulfonyl)-2-methyl-propionic acid]: the pIC50 was less than 4.10.
On the same count and under the same terms, for `NC(=O)CS(=O)(=O)c1ccc(-c2ccccc2)cc1` [2-(Biphenyl-4-sulfonyl)-acetamide] the value was less than 4.10; for `CC(C(=O)O)S(=O)(=O)c1ccc(-c2ccccc2)cc1` (centres undefined) [2-(Biphenyl-4-sulfonyl)-propionic acid], 4.77; for `CS(=O)(=O)c1ccc(-c2cccc(C(=O)NCc3cccc4ccccc34)c2)cc1` [4'-Methanesulfonyl-biphenyl-3-carboxylic acid (naphthalen-1-ylmethyl)-amide], less than 4.10.
The same measure, in the same setting: the same measure for `CS(=O)(=O)c1ccc(-c2ccccc2)cc1` [4-Methanesulfonyl-biphenyl]: less than 4.10; for `O=C(NCc1cccc2ccccc12)c1cccc(-c2ccc(C(=O)C(F)(F)P(=O)(O)O)cc2)c1` [(1,1-Difluoro-2-{3'-[(naphthalen-1-ylmethyl)-carbamoyl]-biphenyl-4-yl}-2-oxo-ethyl)-phosphonic acid]: 6.13; for `COc1cccc(-c2ccc(S(=O)(=O)CC(=O)O)cc2)c1` [(3'-Methoxy-biphenyl-4-sulfonyl)-acetic acid]: 5.40.
Still for that read-out and setting: for `O=C(O)CS(=O)(=O)c1ccc(-c2cccc(C(=O)Nc3ccccc3)c2)cc1` [(3'-Phenylcarbamoyl-biphenyl-4-sulfonyl)-acetic acid] the value was 6.38; for `O=C(O)CS(=O)(=O)c1cccc(COc2ccccc2)c1` [(3-Phenoxymethyl-benzenesulfonyl)-acetic acid], less than 4.10; for `O=C(O)CS(=O)(=O)c1ccc(-c2ccc(C(=O)NCc3ccccc3)cc2)cc1` [(4'-Benzylcarbamoyl-biphenyl-4-sulfonyl)-acetic acid], 6.29.
Compound `O=C(O)CS(=O)(=O)c1ccc(-c2ccc(CC(=O)NCc3ccccc3)cc2)cc1` [(4'-Benzylcarbamoylmethyl-biphenyl-4-sulfonyl)-acetic acid] gave a pIC50 of 6.47.
Same read-out and setting: for `O=C(O)CS(=O)(=O)c1ccc(-c2ccc(C(=O)N(Cc3ccccc3)Cc3ccccc3)cc2)cc1` [(4'-Dibenzylcarbamoyl-biphenyl-4-sulfonyl)-acetic acid] the value was 5.96; for `COc1ccc(-c2ccc(S(=O)(=O)CC(=O)O)cc2)cc1` [(4'-Methoxy-biphenyl-4-sulfonyl)-acetic acid], 5.89.
With `O=C(O)CS(=O)(=O)c1ccc(-c2ccc(C(=O)Nc3ccccc3)cc2)cc1` [(4'-Phenylcarbamoyl-biphenyl-4-sulfonyl)-acetic acid], the pIC50 is 5.89.
`O=C(O)CS(=O)(=O)c1ccc(-c2ccc(CC(=O)Nc3ccccc3)cc2)cc1` [(4'-Phenylcarbamoylmethyl-biphenyl-4-sulfonyl)-acetic acid] showed a pIC50 of 6.80. This pIC50 lies 0.91 log units higher than the previous one.
The same measure, in the same setting: the same measure for `O=C(O)CS(=O)(=O)c1ccc(-c2ccc3c(c2)OCO3)cc1` [(4-Benzo[1,3]dioxol-5-yl-benzenesulfonyl)-acetic acid]: 5.89; for `O=C(O)CS(=O)(=O)c1ccc(-c2cccc3ccccc23)cc1` [(4-Naphthalen-1-yl-benzenesulfonyl)-acetic acid]: 5.27.
Same read-out and setting: for `O=C(O)CS(=O)(=O)c1ccc(NCCc2ccccc2)cc1` [(4-Phenethylamino-benzenesulfonyl)-acetic acid] the value was 4.17; for `O=C(O)CS(=O)(=O)c1ccc(Sc2ccccc2)cc1` [(4-Phenylsulfanyl-benzenesulfonyl)-acetic acid], less than 4.10.
Same read-out and setting: the same measure for `O=C(O)CS(=O)(=O)c1ccc(-c2nccs2)cc1` [(4-Thiazol-2-yl-benzenesulfonyl)-acetic acid]: 4.70.
For the compound `O=C(O)CS(=O)(=O)c1cccc(-c2ccccc2)c1` [(Biphenyl-3-sulfonyl)-acetic acid], the pIC50 was less than 4.10.
Same read-out and setting: the same measure for `O=C(O)CSc1ccc(-c2ccccc2)cc1` [(Biphenyl-4-sulfanyl)-acetic acid]: less than 4.10; for `O=C(O)C(F)S(=O)(=O)c1ccc(-c2ccccc2)cc1` (centres undefined) [(Biphenyl-4-sulfonyl)-fluoro-acetic acid]: 5.19; for `O=S(=O)(O)CS(=O)(=O)c1ccc(-c2ccccc2)cc1` [(Biphenyl-4-sulfonyl)-methanesulfonic acid]: 4.49.
Still for that read-out and setting: for `O=C(O)CS(=O)(=O)c1ccc2ccccc2c1` [(Naphthalene-2-sulfonyl)-acetic acid] the value was 4.40; for `C[C@H](NC(=O)c1cccc(-c2ccc(S(=O)(=O)CC(=O)O)cc2)c1)c1ccccc1` [[3'-(1-(S)-phenyl-ethylcarbamoyl)-biphenyl-4-sulfonyl]-acetic acid], 5.77; for `Cc1cccc(CNC(=O)c2cccc(-c3ccc(S(=O)(=O)CC(=O)O)cc3)c2)c1C` [[3'-(2,3-dimethyl-benzylcarbamoyl)-biphenyl-4-sulfonyl]-acetic acid], 8.04.
Take `Cc1ccccc1CNC(=O)c1cccc(-c2ccc(S(=O)(=O)CC(=O)O)cc2)c1` [[3'-(2-methyl-benzylcarbamoyl)-biphenyl-4-sulfonyl]-acetic acid]: the pIC50 was 7.49.
The same measure, in the same setting: for `Cc1cccc(CNC(=O)c2cccc(-c3ccc(S(=O)(=O)CC(=O)O)cc3)c2)c1` [[3'-(3-methyl-benzylcarbamoyl)-biphenyl-4-sulfonyl]-acetic acid] the value was 7.57; for `C[C@@H](NC(=O)c1cccc(-c2ccc(S(=O)(=O)CC(=O)O)cc2)c1)c1ccccc1` [[3'-((R)-1-Phenyl-ethylcarbamoyl)-biphenyl-4-sulfonyl]-acetic acid], 7.37; for `O=C(O)CS(=O)(=O)c1ccc(-c2cccc(CC(=O)N[C@H]3CCc4ccccc43)c2)cc1` [[3'-((S)-Indan-1-ylcarbamoylmethyl)-biphenyl-4-sulfonyl]-acetic acid], 7.70.
The same measure, in the same setting: for `O=C(O)CS(=O)(=O)c1ccc(-c2cccc(CC(=O)NCc3ccccc3)c2)cc1` [[3'-(Benzylcarbamoyl-methyl)-biphenyl-4-sulfonyl]-acetic acid] the value was 6.52; for `O=C(O)CS(=O)(=O)c1ccc(-c2cccc(C(=O)N3CCOCC3)c2)cc1` [[3'-(Morpholine-4-carbonyl)-biphenyl-4-sulfonyl]-acetic acid], 4.66.
Same read-out and setting: for `CN(C(=O)c1ccc(-c2ccc(S(=O)(=O)CC(=O)O)cc2)cc1)c1ccccc1` [[4'-(Methyl-phenyl-carbamoyl)-biphenyl-4-sulfonyl]-acetic acid] the value was 5.32; for `O=C(O)CS(=O)(=O)c1ccc(-c2ccc(C(=O)N3CCCCC3)cc2)cc1` [[4'-(Piperidine-1-carbonyl)-biphenyl-4-sulfonyl]-acetic acid], 5.48; for `Cc1nc(-c2ccc(S(=O)(=O)CC(=O)O)cc2)cs1` [[4-(2-Methyl-thiazol-4-yl)-benzenesulfonyl]-acetic acid], 4.52.
`O=C(O)CS(=O)(=O)c1ccc(-c2cccc(CC(=O)Nc3ccccc3)c2)cc1` [{3'-[(phenylcarbamoyl)-methyl]-biphenyl-4-sulfonyl}-acetic acid] showed a pIC50 of 6.96. This pIC50 lies 2.44 log units higher than the previous one.
Same read-out and setting: for `CC(=O)NCCNC(=O)Cc1ccc(-c2ccc(S(=O)(=O)CC(=O)O)cc2)cc1` [{4'-[(2-Acetylamino-ethylcarbamoyl)-methyl]-biphenyl-4-sulfonyl}-acetic acid] the value was 5.72.
